Measurements: ChEMBL document CHEMBL1144079, “7-Hydroxyceratinamine, a new cyanoformamide-containing metabolite from a sponge, Aplysinella sp” (J Nat Prod, 1999)
Active and inactive are the calls of the source. No cut-off for these calls is given here.

system: U-937; test: Induction of apoptosis in human U937 cells; assay type: functional, cell-based

SMILES	Activity
N#CC(=O)NCCCOc1c(Br)cc(CCN)cc1Br	inactive
NCCCOc1c(Br)cc(CCN)cc1Br	inactive
C[N+](C)(C)CCc1cc(Br)c(O)c(Br)c1	inactive
N#CC(=O)NCCCOc1c(Br)cc(C(O)CN)cc1Br (centres undefined)	inactive
